How the values were obtained:
bovine AChE = biological target: T1, bovine AChE (Bos taurus, UniProt P23795); conditions: read-out: potency at bovine AChE; Kohn 1965; cited from earlier work
T1 sequence (P23795 31-613): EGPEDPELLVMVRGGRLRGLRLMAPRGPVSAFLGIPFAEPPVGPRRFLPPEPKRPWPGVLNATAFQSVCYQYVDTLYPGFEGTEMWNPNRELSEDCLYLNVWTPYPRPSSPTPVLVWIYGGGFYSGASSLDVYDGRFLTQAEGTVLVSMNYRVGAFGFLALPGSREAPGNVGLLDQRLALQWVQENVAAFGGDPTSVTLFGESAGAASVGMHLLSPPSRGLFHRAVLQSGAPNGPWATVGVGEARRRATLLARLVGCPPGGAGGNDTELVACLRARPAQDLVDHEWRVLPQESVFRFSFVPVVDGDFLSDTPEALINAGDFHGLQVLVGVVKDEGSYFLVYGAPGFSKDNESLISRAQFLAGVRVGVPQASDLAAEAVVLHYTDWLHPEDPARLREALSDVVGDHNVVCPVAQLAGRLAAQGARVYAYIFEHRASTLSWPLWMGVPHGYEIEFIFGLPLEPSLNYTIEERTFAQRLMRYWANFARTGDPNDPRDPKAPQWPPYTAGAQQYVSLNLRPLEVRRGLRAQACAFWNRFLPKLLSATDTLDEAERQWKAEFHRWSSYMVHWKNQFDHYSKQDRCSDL

Md hmg AChE = biological target: T2, Md hmg AChE (Musca domestica, UniProt Q7YWJ9); conditions: read-out: Md WT hmg IC50; Musca domestica head homogenate; data from Metcalf / Kolbezen; cited from earlier work
T2 construct: Comparison of Ag homogenate and Md head; host or cells: housefly head homogenate

hAChE = biological target: T3, hAChE (Homo sapiens, UniProt P22303); experiment: Ellman AChE inhibition assay, recombinant hAChE; type: biochemical
T3 construct: purchased Sigma C1682

Anopheles gambiae = experiment: Live mosquito contact toxicity, WHO filter paper assay; type: in vivo; conditions: for Live Mosquito Contact Toxicity MC for 100% lethality at 24 hr: 1 hr exposure to treated filter paper
Ag hmg AChE = biological target: T4, Ag hmg AChE (Anopheles gambiae, UniProt Q869C3); experiment: Ellman AChE inhibition assay, Anopheles gambiae homogenate (Ag hmg); type: biochemical; conditions: for IC50: Ag WT hmg IC50, WT Anopheles gambiae homogenate, pH 7.8, 10 min preincubation; for IC50 ratio (hAChE/Ag hmg): selectivity, values in parenthesis
T4 construct: To prepare the Ag homogenate (Ag hmg) 10 Anopheles gambiae mosquitoes were combined; from tissue; host or cells: whole Anopheles gambiae mosquitoes, crude homogenate supernatant

Ag ace-1S [1] = experiment: biochemical; parameters: species or system Anopheles gambiae; conditions: selectivity, values in parenthesis
Ag ace-1S [2] = biological target: T5, Ag ace-1S (Anopheles gambiae, UniProt Q869C3); experiment: biochemical
T5 construct: encoding the entire wild type AgAChE protein (ace1, 737 amino acids); made in house; host or cells: Drosophila S2 cells (stably transfected, pMT/V5-His vector), clarified cell lysate
T5 sequence (Q869C3 39-737): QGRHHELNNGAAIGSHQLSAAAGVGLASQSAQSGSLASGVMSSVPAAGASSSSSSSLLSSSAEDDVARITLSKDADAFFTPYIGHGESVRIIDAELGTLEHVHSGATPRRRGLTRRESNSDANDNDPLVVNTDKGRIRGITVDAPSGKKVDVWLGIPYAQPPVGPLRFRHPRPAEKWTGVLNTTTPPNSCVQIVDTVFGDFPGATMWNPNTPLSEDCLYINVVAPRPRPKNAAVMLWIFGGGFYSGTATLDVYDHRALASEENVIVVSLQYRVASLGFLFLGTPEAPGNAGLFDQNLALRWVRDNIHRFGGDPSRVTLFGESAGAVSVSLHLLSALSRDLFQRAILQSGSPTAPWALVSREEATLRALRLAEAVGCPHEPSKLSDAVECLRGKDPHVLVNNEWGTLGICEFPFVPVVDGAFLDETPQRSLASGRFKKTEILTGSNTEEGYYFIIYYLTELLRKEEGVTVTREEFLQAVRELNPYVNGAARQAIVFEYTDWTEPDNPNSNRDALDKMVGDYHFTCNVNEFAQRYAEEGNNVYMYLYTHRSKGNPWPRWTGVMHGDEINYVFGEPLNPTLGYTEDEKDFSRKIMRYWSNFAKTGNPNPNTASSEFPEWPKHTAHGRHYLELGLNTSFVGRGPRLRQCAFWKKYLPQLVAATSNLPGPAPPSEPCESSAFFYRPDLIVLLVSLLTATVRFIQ

T2 sequence (Q7YWJ9 1-692): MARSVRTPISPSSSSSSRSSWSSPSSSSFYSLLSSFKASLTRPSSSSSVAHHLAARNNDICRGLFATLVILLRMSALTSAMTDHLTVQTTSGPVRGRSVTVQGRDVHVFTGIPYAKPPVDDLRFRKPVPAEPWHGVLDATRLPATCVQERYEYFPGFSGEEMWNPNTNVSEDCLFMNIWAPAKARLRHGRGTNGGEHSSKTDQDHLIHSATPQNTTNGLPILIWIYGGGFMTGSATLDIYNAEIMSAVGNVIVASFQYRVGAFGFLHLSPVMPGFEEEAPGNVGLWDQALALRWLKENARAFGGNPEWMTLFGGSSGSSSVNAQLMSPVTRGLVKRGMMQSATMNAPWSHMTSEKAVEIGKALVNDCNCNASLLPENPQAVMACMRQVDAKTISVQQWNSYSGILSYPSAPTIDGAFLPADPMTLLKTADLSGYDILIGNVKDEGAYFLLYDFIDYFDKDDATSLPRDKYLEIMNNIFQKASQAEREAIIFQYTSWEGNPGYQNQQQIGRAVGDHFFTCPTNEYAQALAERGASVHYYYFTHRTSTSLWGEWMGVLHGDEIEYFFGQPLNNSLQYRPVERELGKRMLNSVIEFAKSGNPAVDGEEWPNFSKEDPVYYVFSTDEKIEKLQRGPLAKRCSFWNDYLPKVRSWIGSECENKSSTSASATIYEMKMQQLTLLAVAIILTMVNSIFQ
T3 sequence (P22303 32-614): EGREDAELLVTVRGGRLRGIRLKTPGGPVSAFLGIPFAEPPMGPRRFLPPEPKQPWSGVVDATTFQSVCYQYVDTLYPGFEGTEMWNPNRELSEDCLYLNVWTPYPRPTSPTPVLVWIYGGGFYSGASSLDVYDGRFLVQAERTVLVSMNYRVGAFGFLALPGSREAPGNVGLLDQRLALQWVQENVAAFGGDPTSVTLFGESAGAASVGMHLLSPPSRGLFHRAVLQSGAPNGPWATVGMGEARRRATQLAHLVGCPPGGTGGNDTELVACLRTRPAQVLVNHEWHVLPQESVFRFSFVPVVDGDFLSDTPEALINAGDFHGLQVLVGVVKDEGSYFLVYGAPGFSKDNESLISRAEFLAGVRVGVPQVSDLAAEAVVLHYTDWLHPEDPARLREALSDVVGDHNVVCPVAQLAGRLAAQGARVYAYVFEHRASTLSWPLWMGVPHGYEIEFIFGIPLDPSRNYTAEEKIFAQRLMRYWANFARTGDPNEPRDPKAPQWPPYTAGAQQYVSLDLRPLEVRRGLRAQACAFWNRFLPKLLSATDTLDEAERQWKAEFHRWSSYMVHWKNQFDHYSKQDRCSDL
T4 sequence (Q869C3 39-737): as the sequence (Q869C3 39-737) above

Structure (SMILES) | IC50 (bovine AChE) | IC50 (Md hmg AChE) | IC50 (hAChE) | Live Mosquito Contact Toxicity MC for 100% lethality at 24 hr (Anopheles gambiae) | Live Mosquito Contact Toxicity MC for 100% lethality at 24 hr, with synergist (Anopheles gambiae; 1 hr exposure, piperonyl butoxide 0.3 mg/mL) | IC50 (Ag hmg AChE) | IC50 ratio (hAChE/Ag hmg) (Ag hmg AChE) | IC50 ratio (hAChE/Ag ace-1S) (Ag ace-1S [1]) | IC50 (Ag ace-1S [2]) | lethality at 24 h (Anopheles gambiae; at 11 ug/cm^2, 1 hr exposure)
CNC(=O)Oc1cccc(C(C)(C)C)c1 [Compound 1a, 3-tert-butylphenyl-N-methyl carbamate] | 530 nM | 0.4 µM | 0.265 µM | 1.1 ug/cm^2 | 0.28 ug/cm^2 | – | – | – | – | –
CNC(=O)Oc1cccc(Br)c1 [Compound 8a] | – | 13 µM | > 100 µM | 11 ug/cm^2 | – | 24 µM | (>4.2x) | (>13x) | 7610 nM | –
CNC(=O)Oc1cccc(I)c1 [Compound 9a] | – | 7 µM | 67.2 µM | 11 ug/cm^2 | – | 5.17 µM | (13x) | (37x) | 1820 nM | –
CNC(=O)Oc1cc(C)cc(C)c1 [Compound 10a] | – | 6 µM | 17.4 µM | 56 ug/cm^2 | – | 2.78 µM | (6.2x) | (17x) | 1040 nM | –
CNC(=O)Oc1cc(C(C)(C)C)cc(C(C)(C)C)c1 [Compound 11a] | – | 0.078 µM | 5.17 µM | – | – | 5.32 µM | (1.0x) | (2.1x) | 2470 nM | None at 11
CNC(=O)Oc1ccccc1OC(C)C [Propoxur, reference compound] | – | 0.67 µM | 0.444 µM | 1.1 ug/cm^2 | – | 0.371 µM | (1.2x) | (2.1x) | 213 nM | –

From patent US8618162B2 (priority 2007, dated 2013)
